# Results published in patent US9822157B2 (priority 2013, dated 2017).
# Like-named read-outs stand apart in the source and are kept apart here.
# Target: T1, human ferroportin (Homo sapiens, UniProt Q9NP59)
# T1 sequence (Q9NP59 1-571): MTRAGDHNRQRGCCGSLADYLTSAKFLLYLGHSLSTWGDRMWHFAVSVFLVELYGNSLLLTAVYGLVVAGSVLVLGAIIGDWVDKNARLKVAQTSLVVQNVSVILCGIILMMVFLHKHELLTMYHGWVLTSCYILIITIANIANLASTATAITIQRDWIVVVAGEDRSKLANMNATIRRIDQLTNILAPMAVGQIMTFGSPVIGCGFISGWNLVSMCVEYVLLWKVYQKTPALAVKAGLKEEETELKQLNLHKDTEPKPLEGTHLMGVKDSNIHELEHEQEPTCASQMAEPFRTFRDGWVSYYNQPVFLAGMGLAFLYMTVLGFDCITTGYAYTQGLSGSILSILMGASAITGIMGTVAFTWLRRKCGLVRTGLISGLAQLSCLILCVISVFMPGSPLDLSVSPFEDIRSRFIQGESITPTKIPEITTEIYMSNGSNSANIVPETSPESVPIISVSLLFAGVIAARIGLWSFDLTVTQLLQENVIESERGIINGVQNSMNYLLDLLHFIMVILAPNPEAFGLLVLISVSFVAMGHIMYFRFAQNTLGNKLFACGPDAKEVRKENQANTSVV
# Assay type: cell-based
# Conditions: for % Activity At 1 uM: at 1 uM peptide, monomers and disulphide-linked dimers
# Text: The cDNA encoding the human ferroportin (SLC40A1) was cloned from a cDNA clone from Origene (NM_014585). The DNA encoding the ferroportin was amplified by PCR using primers also encoding terminal restriction sites for subcloning, but without the termination codon. The ferroportin receptor was subcloned into a mammalian GFP expression vector containing a neomycin (G418) resistance marker in such that the reading frame of the ferroportin was fused in frame with the GFP protein. The fidelity of the DNA encoding the protein was confirmed by DNA sequencing. HEK293 cells were used for transfection of the ferroportin-GFP receptor expression plasmid. The cells were grown according to standard protocol in growth medium and transfected with the plasmids using Lipofectamine (manufacturer's protocol, Invitrogen). […] The cells were propagated and frozen in aliquots.
# A retro inverse peptide is a peptide with a reversed sequence in all D amino acids. […] The EC50 of these reference compounds for ferroportin degradation was determined according to the activity assay described above.
# [1] = Hepcidin analog peptides, read-out: Potency EC50
# [2] = read-out: EC50 (n > 3), alanine scan of Compound 1
# [3] = read-out: EC50 (nM) (n > 3), alanine scan of Compound 18
# [4] = read-out: EC50 (nM) (n > 3), alanine scan of Compound 1
# [5] = cysteine replacement scan of Mini-Hepcidin derivatives
# [6] = read-out: EC50 (n = 3), cells printed in μM, in vitro activity as in Example 2, peptide monomers and dimers dimerized through a single disulphide linkage, n = 3
# [7] = read-out: EC50 (nM) (n = 3), in vitro activity as in Example 2, peptide monomers and dimers dimerized through a single disulphide linkage, n = 3
substance,measurement,setting,value
(Isovaleric acid-DTHFPCIKF-NH2)2 [Compound 326],% Activity At 1 uM,,100%
H-ATHFPCIIF-NH2 [Compound 284],EC50,[1],> 1000 nM
same,EC50,[2],> 1000 nM
H-ATHFPICIFGPRSKGWVCM-NH2 (cysteine pairing not given here) [Compound 33],EC50,[1],184 nM
same,EC50,[3],184 nM
H-DAHFPCIIF-NH2 [Compound 52],EC50,[1],388 nM
same,EC50,[4],388 nM
H-DTAFPCIIF-NH2 [Compound 283],EC50,[1],739 nM
same,EC50,[4],739 nM
H-DTAFPICIFGPRSKGWVCM-NH2 (cysteine pairing not given here) [Compound 60],EC50,[1],498 nM
same,EC50,[3],498 nM
H-DTHAPCIIF-NH2 [Compound 282],Potency EC50 (nM),Hepcidin analog peptides,Inactive
same,EC50 (nM) (n > 3),alanine scan of Compound 1,Not active
H-DTHAPICIFGPRSKGWVCM-NH2 (cysteine pairing not given here) [Compound 38],EC50,[1],254 nM
same,EC50,[3],254 nM
H-DTHCPIAIF-NH2 [Compound 277],Potency EC50 (nM),Hepcidin analog peptides,Inactive
same,EC50 (nM) (n > 3),[5],Not active
H-DTHFACIIF-NH2 [Compound 280],EC50,[1],> 1000 nM
same,EC50,[2],> 1000 nM
H-DTHFAICIFGPRSKGWVCM-NH2 (cysteine pairing not given here) [Compound 26],EC50,[1],147 nM
same,EC50,[3],147 nM
H-DTHFGCIIFGPRSKGWVCK-NH2 (cysteine pairing not given here) [Compound 123],Potency EC50 (nM),Hepcidin analog peptides,Inactive
H-DTHFKCIIFGPRSKGWVCK-NH2 (cysteine pairing not given here) [Compound 131],Potency EC50 (nM),Hepcidin analog peptides,Inactive
H-DTHFPCAIF-NH2 [Compound 279],EC50,[1],> 1000 nM
same,EC50,[2],> 1000 nM
H-DTHFPCIAF-NH2 [Compound 51],EC50,[1],382 nM
same,EC50,[4],382 nM
H-DTHFPCIEF-NH2 [Compound 287],EC50,[1],> 1000 nM
H-DTHFPCIEK-NH2 [Compound 310],% Activity At 1 uM,,0%
same,EC50,[6],> 1000 nM
H-DTHFPCIF-NH2 [Compound 293],% Activity At 1 uM,,52%
H-DTHFPCIFF-NH2 [Compound 56],EC50,[1],441 nM
H-DTHFPCIIA-NH2 [Compound 278],EC50,[1],> 1000 nM
same,EC50,[2],> 1000 nM
H-DTHFPCIIFGPRARGWVCK-NH2 (cysteine pairing not given here) [Compound 87],EC50,[1],> 1000 nM
H-DTHFPCIIFGPRSKGWVCK-NH2 (cysteine pairing not given here) [Compound 86],EC50,[1],> 1000 nM
H-DTHFPCIIFGPRSKGWVCM-NH2 (cysteine pairing not given here) [Compound 21],EC50,[1],46 nM
H-DTHFPCIIFGPRSRGVCK-NH2 (cysteine pairing not given here) [Compound 84],EC50,[1],> 1000 nM
H-DTHFPCIIFGPRSRGWRCK-NH2 (cysteine pairing not given here) [Compound 80],EC50,[1],> 1000 nM
H-DTHFPCIIFK-NH2 [Compound 55],EC50,[1],419 nM
H-DTHFPCIIK-NH2 [Compound 304],% Activity At 1 uM,,55%
same,EC50,[6],> 1000 nM
H-DTHFPCIIR-NH2 [Compound 305],% Activity At 1 uM,,62%
same,EC50,[6],> 1000 nM
H-DTHFPCIKFF-NH2 [Compound 297],% Activity At 1 uM,,64%
same,EC50,[7],> 300 nM
H-DTHFPCIKFGPRSKGWVCM-NH2 (cysteine pairing not given here) [Compound 136],EC50,[1],669 nM
H-DTHFPCILF-NH2 [Compound 308],% Activity At 1 uM,,89%
same,EC50,[7],> 300 nM
H-DTHFPCILK-NH2 [Compound 309],% Activity At 1 uM,,55%
same,EC50,[7],> 300 nM
H-DTHFPCIRFGPRSRGWRCK-NH2 (cysteine pairing not given here) [Compound 82],EC50,[1],> 1000 nM
H-DTHFPCIRFGPRSRGWVCK-NH2 (cysteine pairing not given here) [Compound 81],EC50,[1],> 1000 nM
H-DTHFPCISFGPRSKGWVCK-NH2 (cysteine pairing not given here) [Compound 101],EC50,[1],> 1000 nM
H-DTHFPCISFGPRSKGWVCM-NH2 (cysteine pairing not given here) [Compound 135],EC50,[1],545 nM
H-DTHFPCIVF-NH2 [Compound 307],% Activity At 1 uM,,75%
same,EC50,[7],> 300 nM
H-DTHFPCIYFGPRSKGWVCK-NH2 (cysteine pairing not given here) [Compound 85],EC50,[1],705 nM
H-DTHFPCRRFGPRSKGWVC-NH2 (cysteine pairing not given here) [Compound 70],Potency EC50 (nM),Hepcidin analog peptides,Inactive
H-DTHFPIAICI-NH2 [Compound 274],Potency EC50 (nM),Hepcidin analog peptides,Inactive
same,EC50 (nM) (n > 3),[5],Not active
H-DTHFPIAIFAAGICI-NH2 [Compound 269],Potency EC50 (nM),Hepcidin analog peptides,Inactive
same,EC50 (nM) (n > 3),[5],Not active
H-DTHFPIAIFAAICI-NH2 [Compound 270],Potency EC50 (nM),Hepcidin analog peptides,Inactive
same,EC50 (nM) (n > 3),[5],Not active
H-DTHFPIAIFAICI-NH2 [Compound 271],Potency EC50 (nM),Hepcidin analog peptides,Inactive
same,EC50 (nM) (n > 3),[5],Not active
H-DTHFPIAIFGPRSKGWVAM-NH2 [Compound 69],Potency EC50 (nM),Hepcidin analog peptides,Inactive
same,EC50 (nM) (n > 3),alanine scan of Compound 18,Inactive
H-DTHFPIAIFICI-NH2 [Compound 272],Potency EC50 (nM),Hepcidin analog peptides,Inactive
same,EC50 (nM) (n > 3),[5],Not active
H-DTHFPIAIICI-NH2 [Compound 273],Potency EC50 (nM),Hepcidin analog peptides,Inactive
same,EC50 (nM) (n > 3),[5],Not active
H-DTHFPICAFGPRSKGWVCM-NH2 (cysteine pairing not given here) [Compound 68],EC50,[1],> 10000 nM
same,EC50,"read-out: EC50 (n > 3), alanine scan of Compound 18",> 10000 nM
H-DTHFPICIAGPRSKGWVCM-NH2 (cysteine pairing not given here) [Compound 67],EC50,[1],2470 nM
same,EC50,[3],2470 nM
H-DTHFPICIFAPRSKGWVCM-NH2 (cysteine pairing not given here) [Compound 22],EC50,[1],9430 nM
same,EC50,[3],9430 nM
H-DTHFPICIFGPASKGWVCM-NH2 (cysteine pairing not given here) [Compound 34],EC50,[1],206 nM
same,EC50,[3],206 nM
H-DTHFPICIFGPHRSKGWVCM-NH2 (cysteine pairing not given here) [Compound 27],EC50,[1],149 nM
H-DTHFPICIFGPRAKGWVCM-NH2 (cysteine pairing not given here) [Compound 16],EC50,[1],88 nM
same,EC50,[3],88 nM
H-DTHFPICIFGPRAKGWVCM-NH2 (cysteine pairing not given here) [Compound 28],EC50,[1],88 nM
H-DTHFPICIFGPRSKAWVCM-NH2 (cysteine pairing not given here) [Compound 31],EC50,[1],175 nM
same,EC50,[3],175 nM
H-DTHFPICIFGPRSKGAVCM-NH2 (cysteine pairing not given here) [Compound 66],EC50,[1],520 nM
same,EC50,[3],520 nM
H-DTHFPIICI-NH2 [Compound 275],Potency EC50 (nM),Hepcidin analog peptides,Inactive
same,EC50 (nM) (n > 3),[5],Not active
H-DTHFRCIIFGPRSKGWVCK-NH2 (cysteine pairing not given here) [Compound 125],Potency EC50 (nM),Hepcidin analog peptides,Inactive
H-DTHICIAIF-NH2 [Compound 276],Potency EC50 (nM),Hepcidin analog peptides,Inactive
same,EC50 (nM) (n > 3),[5],Not active
H-DTKFPCIIF-NH2 [Compound 302],% Activity At 1 uM,,60%
same,EC50,[6],> 1000 nM
H-EDTHFPCIIFGPRSKGWVCK-NH2 (cysteine pairing not given here) [Compound 103],EC50,[1],> 1000 nM
H-EDTHFPCIIFGPRSKGWVCM-NH2 (cysteine pairing not given here) [Compound 137],EC50,[1],873 nM
H-HFPCIIFGPRSKGWVCK-NH2 (cysteine pairing not given here) [Compound 99],Potency EC50 (nM),Hepcidin analog peptides,Inactive
H-HFPCIIFGPRSKGWVCM-NH2 (cysteine pairing not given here) [Compound 133],EC50,[1],> 1000 nM
H-THFPCIIFGPRSKGWVCK-NH2 (cysteine pairing not given here) [Compound 97],Potency EC50 (nM),Hepcidin analog peptides,Inactive
H-THFPCIIFGPRSKGWVCM-NH2 (cysteine pairing not given here) [Compound 132],EC50,[1],> 1000 nM
H-VDTHFPCIKFGPRSKGWVCK-NH2 (cysteine pairing not given here) [Compound 164],EC50,[1],146 nM
